Assay: Phase I clinical trial: treatment-emergent adverse events (patients, n (%)), dose limiting toxicity, MTD
Assay type: in vivo
Experimental: Safety, maximum tolerated dose (MTD), pharmacokinetics (PK) and preliminary antitumor activity were evaluated.
Pharmacodynamic (PD) endpoints were evaluated in surrogate (peripheral blood cells [PBCs], skin) and tumor tissues for the phosphorylation of TORC1-dependent markers (4EBP1/S6), and TORC2-dependent markers (AKT/PRAS40).

CC(C)n1nc(-c2ccc3oc(N)nc3c2)c2c(N)ncnc21 [compound A]
6%: lymphopenia, only reported Grade 3 or higher AE possibly related (3 regimens)
0 (0%): Grade 3 or greater TEAE: Aspartate aminotransferase increased (QD Dosing (N = 25)) | Grade 3 or greater TEAE: Asthenia (QD Dosing (N = 25)) | Grade 3 or greater TEAE: Disease progression (QD Dosing (N = 25)) | Grade 3 or greater TEAE: Gamma-glutamyltransferase increased (QD Dosing (N = 25)) | Grade 3 or greater TEAE: Gastroenteritis (QD Dosing (N = 25)) | Grade 3 or greater TEAE: Rash macular (QD Dosing (N = 25)) | Grade 3 or greater TEAE: Urinary tract infection (QD Dosing (N = 25)) | Grade 3 or greater TEAE: Abdominal pain upper (QDx3d QW (N = 14)) | Grade 3 or greater TEAE: Anaemia (QDx3d QW (N = 14)) | Grade 3 or greater TEAE: Aspartate aminotransferase increased (QDx3d QW (N = 14)) | Grade 3 or greater TEAE: Catheter related infection (QDx3d QW (N = 14)) | Grade 3 or greater TEAE: Cellulitis (QDx3d QW (N = 14)) | Grade 3 or greater TEAE: Enterocutaneous fistula (QDx3d QW (N = 14)) | Grade 3 or greater TEAE: Hypokalaemia (QDx3d QW (N = 14)) | Grade 3 or greater TEAE: Hyponatraemia (QDx3d QW (N = 14)) | Grade 3 or greater TEAE: Pancreatitis acute (QDx3d QW (N = 14)) | Grade 3 or greater TEAE: Pleural effusion (QDx3d QW (N = 14)) | Grade 3 or greater TEAE: Pruritus (QDx3d QW (N = 14)) | Grade 3 or greater TEAE: Rash (QDx3d QW (N = 14)) | Grade 3 or greater TEAE: Somnolence (QDx3d QW (N = 14)) | Grade 3 or greater TEAE: Thrombocytopenia (QDx3d QW (N = 14)) | Grade 3 or greater TEAE: Abdominal pain upper (QDx5d QW (N = 6)) | Grade 3 or greater TEAE: Anaemia (QDx5d QW (N = 6)) | Grade 3 or greater TEAE: Aspartate aminotransferase increased (QDx5d QW (N = 6)) | Grade 3 or greater TEAE: Asthenia (QDx5d QW (N = 6)) | Grade 3 or greater TEAE: Catheter related infection (QDx5d QW (N = 6)) | Grade 3 or greater TEAE: Cellulitis (QDx5d QW (N = 6)) | Grade 3 or greater TEAE: Diarrhoea (QDx5d QW (N = 6)) | Grade 3 or greater TEAE: Disease progression (QDx5d QW (N = 6)) | Grade 3 or greater TEAE: Enterocutaneous fistula (QDx5d QW (N = 6)) | Grade 3 or greater TEAE: Gamma-glutamyltransferase increased (QDx5d QW (N = 6)) | Grade 3 or greater TEAE: Gastroenteritis (QDx5d QW (N = 6)) | Grade 3 or greater TEAE: Hyperglycaemia (QDx5d QW (N = 6)) | Grade 3 or greater TEAE: Hypokalaemia (QDx5d QW (N = 6)) | Grade 3 or greater TEAE: Hyponatraemia (QDx5d QW (N = 6)) | Grade 3 or greater TEAE: Lymphopenia (QDx5d QW (N = 6)) | Grade 3 or greater TEAE: Pancreatitis acute (QDx5d QW (N = 6)) | Grade 3 or greater TEAE: Pleural effusion (QDx5d QW (N = 6)) | Grade 3 or greater TEAE: Pruritus (QDx5d QW (N = 6)) | Grade 3 or greater TEAE: Rash (QDx5d QW (N = 6)) | Grade 3 or greater TEAE: Rash macular (QDx5d QW (N = 6)) | Grade 3 or greater TEAE: Somnolence (QDx5d QW (N = 6)) | Grade 3 or greater TEAE: Thrombocytopenia (QDx5d QW (N = 6)) | Grade 3 or greater TEAE: Urinary tract infection (QDx5d QW (N = 6)) | Patients Reporting at Least One Grade 3 or Greater TEAE (QDx5d QW (N = 6)) | Grade 3 or greater TEAE: Abdominal pain upper (QW Dosing (N = 15)) | Grade 3 or greater TEAE: Anaemia (QW Dosing (N = 15)) | Grade 3 or greater TEAE: Asthenia (QW Dosing (N = 15)) | Grade 3 or greater TEAE: Catheter related infection (QW Dosing (N = 15)) | Grade 3 or greater TEAE: Cellulitis (QW Dosing (N = 15)) | Grade 3 or greater TEAE: Disease progression (QW Dosing (N = 15)) | Grade 3 or greater TEAE: Enterocutaneous fistula (QW Dosing (N = 15)) | Grade 3 or greater TEAE: Gastroenteritis (QW Dosing (N = 15)) | Grade 3 or greater TEAE: Hyperglycaemia (QW Dosing (N = 15)) | Grade 3 or greater TEAE: Hypokalaemia (QW Dosing (N = 15)) | Grade 3 or greater TEAE: Hyponatraemia (QW Dosing (N = 15)) | Grade 3 or greater TEAE: Pancreatitis acute (QW Dosing (N = 15)) | Grade 3 or greater TEAE: Pleural effusion (QW Dosing (N = 15)) | Grade 3 or greater TEAE: Pruritus (QW Dosing (N = 15)) | Grade 3 or greater TEAE: Rash (QW Dosing (N = 15)) | Grade 3 or greater TEAE: Rash macular (QW Dosing (N = 15)) | Grade 3 or greater TEAE: Somnolence (QW Dosing (N = 15)) | Grade 3 or greater TEAE: Thrombocytopenia (QW Dosing (N = 15)) | Grade 3 or greater TEAE: Urinary tract infection (QW Dosing (N = 15))
Grade (G) 3 asthenia and G3 mucositis: Dose limiting toxicities (40 mg QW, 20 mg QDx3d QW and 13 mg QDxSd QW cohorts)
1 (4%): Grade 3 or greater TEAE: Abdominal pain upper (QD Dosing (N = 25)) | Grade 3 or greater TEAE: Anaemia (QD Dosing (N = 25)) | Grade 3 or greater TEAE: Catheter related infection (QD Dosing (N = 25)) | Grade 3 or greater TEAE: Cellulitis (QD Dosing (N = 25)) | Grade 3 or greater TEAE: Diarrhoea (QD Dosing (N = 25)) | Grade 3 or greater TEAE: Enterocutaneous fistula (QD Dosing (N = 25)) | Grade 3 or greater TEAE: Pancreatitis acute (QD Dosing (N = 25)) | Grade 3 or greater TEAE: Pleural effusion (QD Dosing (N = 25)) | Grade 3 or greater TEAE: Somnolence (QD Dosing (N = 25))
15 (60%): Patients Reporting at Least One Grade 3 or Greater TEAE (QD Dosing (N = 25))
1 (7%): Grade 3 or greater TEAE: Asthenia (QDx3d QW (N = 14)) | Grade 3 or greater TEAE: Diarrhoea (QDx3d QW (N = 14)) | Grade 3 or greater TEAE: Disease progression (QDx3d QW (N = 14)) | Grade 3 or greater TEAE: Gamma-glutamyltransferase increased (QDx3d QW (N = 14)) | Grade 3 or greater TEAE: Gastroenteritis (QDx3d QW (N = 14)) | Grade 3 or greater TEAE: Hyperglycaemia (QDx3d QW (N = 14)) | Grade 3 or greater TEAE: Lymphopenia (QDx3d QW (N = 14)) | Grade 3 or greater TEAE: Rash macular (QDx3d QW (N = 14)) | Grade 3 or greater TEAE: Urinary tract infection (QDx3d QW (N = 14)) | Grade 3 or greater TEAE: Aspartate aminotransferase increased (QW Dosing (N = 15)) | Grade 3 or greater TEAE: Diarrhoea (QW Dosing (N = 15)) | Grade 3 or greater TEAE: Gamma-glutamyltransferase increased (QW Dosing (N = 15)) | Grade 3 or greater TEAE: Lymphopenia (QW Dosing (N = 15))
2 (8%): Grade 3 or greater TEAE: Hypokalaemia (QD Dosing (N = 25)) | Grade 3 or greater TEAE: Hyponatraemia (QD Dosing (N = 25)) | Grade 3 or greater TEAE: Lymphopenia (QD Dosing (N = 25)) | Grade 3 or greater TEAE: Pruritus (QD Dosing (N = 25)) | Grade 3 or greater TEAE: Thrombocytopenia (QD Dosing (N = 25))
4 (16%): Grade 3 or greater TEAE: Hyperglycaemia (QD Dosing (N = 25))
reversible: adverse events (AEs) reported: reversibility (3 intermittent dosing regimens)
7 (28%): Grade 3 or greater TEAE: Rash (QD Dosing (N = 25))
3 (20%): Patients Reporting at Least One Grade 3 or Greater TEAE (QW Dosing (N = 15))
1 (2%): Catheter site inflammation (Table 8: Total (N = 60)) | Catheter site pain (Table 8: Total (N = 60)) | Coagulopathy (Table 8: Total (N = 60)) | Confusional state (Table 8: Total (N = 60)) | Cough (Table 8: Total (N = 60)) | DIARRHEA (Table 8: Total (N = 60)) | Dizziness (Table 8: Total (N = 60)) | Dyspnoea exertional (Table 8: Total (N = 60))
7 (50%): Patients Reporting at Least One Grade 3 or Greater TEAE (QDx3d QW (N = 14))
